Experimental data published in ChEMBL document CHEMBL3297656, “New coumarin derivatives: design, synthesis and use as inhibitors of hMAO” (Bioorg Med Chem, 2014).
pIC50: −log10 of the molar value.

Tests used:
[1] = molecular target: T1, Amine oxidase [flavin-containing] B (Homo sapiens, UniProt P27338); assay: Inhibition of human recombinant MAO-B assessed as H2O2 production using p-tyramine substrate by fluorimetric method
T1 sequence (P27338 whole entry): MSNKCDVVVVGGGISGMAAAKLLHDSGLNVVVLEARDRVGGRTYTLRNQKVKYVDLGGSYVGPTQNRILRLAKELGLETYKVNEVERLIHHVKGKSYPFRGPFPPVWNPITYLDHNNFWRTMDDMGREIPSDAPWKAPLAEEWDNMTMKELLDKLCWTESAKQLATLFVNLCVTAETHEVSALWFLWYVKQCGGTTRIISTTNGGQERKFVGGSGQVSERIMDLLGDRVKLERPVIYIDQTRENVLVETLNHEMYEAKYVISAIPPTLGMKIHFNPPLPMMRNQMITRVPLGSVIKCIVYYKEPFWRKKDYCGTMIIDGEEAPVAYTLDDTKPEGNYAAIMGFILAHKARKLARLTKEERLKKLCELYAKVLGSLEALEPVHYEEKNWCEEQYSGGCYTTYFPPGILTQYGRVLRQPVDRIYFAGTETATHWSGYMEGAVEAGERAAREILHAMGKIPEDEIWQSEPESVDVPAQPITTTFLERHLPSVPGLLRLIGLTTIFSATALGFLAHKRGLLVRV

Homo sapiens = species on record: Homo sapiens; assay: Selectivity index, ratio of IC50 for human recombinant MAO-A to IC50 for human recombinant MAO-B
[2] = molecular target: T2, Amine oxidase [flavin-containing] A (Homo sapiens, UniProt P21397); assay: Inhibition of human recombinant MAO-A assessed as H2O2 production using p-tyramine substrate by fluorimetric method
T2 sequence (P21397 whole entry): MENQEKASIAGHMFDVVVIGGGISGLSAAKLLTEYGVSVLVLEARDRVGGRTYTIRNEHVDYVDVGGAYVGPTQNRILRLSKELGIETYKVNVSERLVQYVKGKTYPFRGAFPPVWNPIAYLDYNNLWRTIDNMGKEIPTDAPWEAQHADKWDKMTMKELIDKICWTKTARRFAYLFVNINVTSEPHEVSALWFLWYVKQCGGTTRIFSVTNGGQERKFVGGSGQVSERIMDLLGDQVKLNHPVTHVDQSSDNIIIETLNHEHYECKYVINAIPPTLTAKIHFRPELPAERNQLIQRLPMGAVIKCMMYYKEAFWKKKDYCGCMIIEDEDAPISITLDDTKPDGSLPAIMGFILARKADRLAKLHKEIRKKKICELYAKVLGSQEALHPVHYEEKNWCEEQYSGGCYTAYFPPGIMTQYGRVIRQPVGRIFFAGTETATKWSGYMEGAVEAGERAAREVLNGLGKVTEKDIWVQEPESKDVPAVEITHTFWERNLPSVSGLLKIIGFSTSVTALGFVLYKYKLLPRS

[3] = molecular target: T2, Amine oxidase [flavin-containing] A; assay: Inhibition of human recombinant MAO-A assessed as H2O2 production using p-tyramine substrate at 60 uM by fluorimetric method
[4] = molecular target: T1, Amine oxidase [flavin-containing] B; assay: Inhibition of human recombinant MAO-B assessed as H2O2 production using p-tyramine substrate at 60 uM by fluorimetric method

| Compound | pIC50 [1] | Ratio IC50 (Homo sapiens) | pIC50 [2] | inhibition (INH) [3] | inhibition (INH) [4] |
| --- | --- | --- | --- | --- | --- |
| CCCCCCN(CCCCCC)C(=O)c1cc2cc(Br)cc(Br)c2oc1=O | 5.13 | 1.4 | 5.00 |  |  |
| CCCCSC(=O)c1cc2cc([N+](=O)[O-])ccc2oc1=O |  |  |  | Not Active | Not Active |
| CC(C)NC(=O)c1cc2ccccc2oc1=O |  |  | 4.45 |  |  |
| CCCCCCN(CCCCCC)C(=O)c1cc2cc([N+](=O)[O-])ccc2oc1=O |  |  |  | Not Active | Not Active |
| O=C(SCc1ccco1)c1cc2ccccc2oc1=O | 6.68 | 189 | 4.40 |  |  |
| CCCCSC(=O)c1cc2ccccc2oc1=O | 4.80 | 3.8 |  | Not Active |  |
| O=C(Sc1ccc(Br)cc1)c1cc2cc(Br)c(Br)cc2oc1=O | 4.60 | 2.4 |  | Not Active |  |
| O=C(Sc1ccc(Br)cc1)c1cc2cc([N+](=O)[O-])ccc2oc1=O | 4.68 | 2.6 |  | Not Active |  |
| CC(C)(C)NC(=O)c1cc2cc([N+](=O)[O-])ccc2oc1=O |  |  |  | Not Active | Not Active |
| O=C(Sc1ccc(Br)cc1)c1cc2cc(C(F)(F)F)ccc2oc1=O | 4.82 | 3.9 |  | Not Active |  |
| CC(C)(C)NC(=O)c1cc2ccccc2oc1=O | 5.10 | 5.1 | 4.39 |  |  |

More lines, now with the values ahead:

| pIC50 [1] | Ratio IC50 (Homo sapiens) | pIC50 [2] | inhibition (INH) [3] | inhibition (INH) [4] | Compound |
| --- | --- | --- | --- | --- | --- |
| 5.25 | 10.6 |  | Not Active |  | O=C(SCc1ccco1)c1cc2cc(Br)c(Br)cc2oc1=O |
| 4.76 | 3.4 |  | Not Active |  | CCC(C)NC(=O)c1cc2cc([N+](=O)[O-])ccc2oc1=O (stereo not drawn) |
| 4.34 | 0.9 | 4.37 |  |  | CCC(C)NC(=O)c1cc2cc(Br)cc(Br)c2oc1=O (stereo not drawn) |
| 4.88 | 2.9 | 4.32 |  |  | O=C(SCc1ccco1)c1cc2cc([N+](=O)[O-])ccc2oc1=O |
|  |  |  | Not Active | Not Active | CC(C)NC(=O)c1cc2cc([N+](=O)[O-])ccc2oc1=O |
| 4.99 | 2.2 | 4.64 |  |  | CC(C)NC(=O)c1cc2cc(Br)cc(Br)c2oc1=O |
|  |  |  | Not Active | Not Active | CCCCSC(=O)c1cc2cc(Br)c(Br)cc2oc1=O |
| 5.11 | 7.8 |  | Not Active |  | O=C(Sc1ncccn1)c1cc2ccccc2oc1=O |
| 5.19 | 3.5 | 4.64 |  |  | O=C(Sc1ccc(Br)cc1)c1cc2ccccc2oc1=O |
